For three compounds, Lowering activity results are on record in ChEMBL document CHEMBL1135010, “Synthetic studies of cis-4-Amino-L-proline derivatives as novel lipid lowering agents” (2002).

Assay [1] in a line: Screening was performed to determine its plasma triglyceride lowering activity on administration of 10 mg/kg/day dose for 6 days on inbreed colony of Swiss Albino Mice. Type of assay: functional, Mus musculus.
Assay [2] is described as follows: Screening was performed to determine its plasma triglyceride lowering activity on administration of 30 mg/kg/day dose for 6 days on inbreed colony of Swiss Albino Mice. The assay is classed as functional, Mus musculus.
For assay [3], the system named is Mus musculus. Description: Screening was performed to determine its plasma triglyceride lowering activity on administration of 10 mg/kg/day on inbreed colony of Swiss Albino Mice; No significant reduction. Type of assay: functional, organism-based.

The source made the active and inactive calls. The calls are words filed in the database; no cut-off is given here.

In assay [1], `CCCc1nn(C)c2c(=O)n(CC(=O)N[C@H]3C[C@@H](C(=O)OCC)N(C(=O)OC(C)(C)C)C3)c(CC)nc12` returned a Lowering activity of 40%.
Same read-out and setting: then `CCc1nc2ccccc2c(=O)n1CC(=O)N[C@H]1C[C@@H](C(=O)O)N(C(=O)OC(C)(C)C)C1`, with 30%.
`CC(C)OC(=O)C(C)(C)Oc1ccc(C(=O)c2ccc(Cl)cc2)cc1` [FENOFIBRATE] displayed a Lowering activity in assay [2] of 36%. In addition, in assay [3], the Lowering activity entry is “inactive”.
